Experimental data as given in the supplement of paper PMC10307832.

Assays:
Experiment in all cases: relative viability (nuclei count vs DMSO), 5 days (fraction); higher = more cells survive
[1] = compound: Cc1ccc2nc(NCCN)c3ncc(C)n3c2c1 + Cc1cc(Nc2cc(N3CCN(C)CC3)nc(Sc3ccc(NC(=O)C4CC4)cc3)n2)n[nH]1 [Tozasertib] (partner 0.1 µM)
Procedure, shortened: (§1)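 Lung cancer cell lines were pin-tool dosed in 1536-well plates on the day after seeding, with either a lone drug or a fixed anchor-drug dose plus five library-drug doses (not always all listed) in √10 steps. Nuclei were counted on 4× images after 5 days. Relative viability is the ratio of treated-well to vehicle-well nuclei counts, with each value a median of duplicate plates.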

[2] = compound: Cc1ccc2nc(NCCN)c3ncc(C)n3c2c1 + O=C(c1cc(Cc2n[nH]c(=O)c3ccccc23)ccc1F)N1CCN(C(=O)C2CC2)CC1 [Olaparib] (partner 8 µM)
Procedure, shortened: as §1

[3] = compound: Cc1ccc2nc(NCCN)c3ncc(C)n3c2c1 + CC(C)C[C@H](NC(=O)[C@H](Cc1ccccc1)NC(=O)c1cnccn1)B(O)O [Bortezomib] (partner 0.002 µM)
Procedure, shortened: as §1

[4] = compound: Cc1ccc2nc(NCCN)c3ncc(C)n3c2c1 + CS(=O)(=O)CCNCc1ccc(-c2ccc3ncnc(Nc4ccc(OCc5cccc(F)c5)c(Cl)c4)c3c2)o1 [Lapatinib] (partner 2 µM)
Procedure, shortened: as §1

Row | Cell Line | relative viability ([1]; first compound 0.04 µM) | relative viability ([1]; first compound 0.1265 µM) | relative viability ([1]; first compound 0.4 µM) | relative viability ([1]; first compound 1.265 µM) | relative viability ([1]; first compound 4 µM) | relative viability ([2]; first compound 0.04 µM) | relative viability ([2]; first compound 0.1265 µM) | relative viability ([2]; first compound 0.4 µM) | relative viability ([2]; first compound 1.265 µM) | relative viability ([2]; first compound 4 µM) | relative viability ([3]; first compound 0.04 µM) | relative viability ([3]; first compound 0.1265 µM) | relative viability ([3]; first compound 0.4 µM) | relative viability ([3]; first compound 1.265 µM) | relative viability ([3]; first compound 4 µM) | relative viability ([4]; first compound 0.04 µM) | relative viability ([4]; first compound 0.1265 µM) | relative viability ([4]; first compound 0.4 µM) | relative viability ([4]; first compound 1.265 µM) | relative viability ([4]; first compound 4 µM)
1 | NCI-H522 | 0.557 | 0.647 | 0.555 | 0.517 | 0.592 | 0.62 | 0.708 | 0.585 | 0.648 | 0.635 |  |  |  |  |  |  |  |  |  | 
2 | HCC-15 | 0.382 | 0.412 | 0.439 | 0.345 | 0.247 | 0.648 | 0.752 | 0.7 | 0.75 | 0.622 | 1.02 | 1 | 0.864 | 0.975 | 0.783 | 0.888 | 0.811 | 0.776 | 0.75 | 0.737
3 | A-427 | 0.229 | 0.21 | 0.185 | 0.212 | 0.196 | 0.723 | 0.672 | 0.693 | 0.711 | 0.63 | 1.05 | 1.15 | 0.929 | 0.978 | 0.962 | 1.13 | 1.06 | 1.02 | 0.957 | 1.06
4 | NCI-H2228 | 0.297 | 0.266 | 0.279 | 0.224 | 0.219 | 0.721 | 0.692 | 0.614 | 0.65 | 0.633 | 1.11 | 0.992 | 1.16 | 1.13 | 0.907 | 1.07 | 1.3 | 0.884 | 1.15 | 1.04
5 | NCI-H1734 | 0.275 | 0.258 | 0.211 | 0.237 | 0.243 | 0.666 | 0.617 | 0.658 | 0.321 | 0.553 | 1.04 | 0.965 | 0.942 | 0.935 | 0.999 | 1.11 | 1 | 1.13 | 1.07 | 0.941
6 | PC-14 | 0.604 | 0.524 | 0.514 | 0.481 | 0.414 | 0.278 | 0.324 | 0.241 | 0.261 | 0.127 | 0.957 | 0.884 | 0.761 | 0.904 | 0.782 | 0.398 | 0.307 | 0.41 | 0.289 | 0.295
7 | NCI-H1915 | 0.481 | 0.492 |  | 0.432 | 0.416 | 0.286 | 0.251 | 0.242 | 0.279 | 0.255 | 0.977 |  | 0.685 | 0.964 | 0.915 | 1.01 |  | 0.68 | 0.991 | 0.947
8 | NCI-H1666 | 0.665 | 0.676 | 0.677 | 0.502 | 0.544 | 0.719 | 0.755 | 0.751 | 0.76 | 0.749 | 0.878 | 0.8 | 0.762 | 1.03 | 0.689 | 0.788 | 0.64 | 0.505 | 0.478 | 0.568
9 | HCC-366 | 0.119 | 0.135 | 0.215 | 0.116 | 0.221 | 0.388 | 0.394 | 0.36 | 0.352 | 0.366 | 1.06 | 0.948 | 1.13 | 1.11 | 0.967 | 1.14 | 0.91 | 1.11 | 1.07 | 0.998
10 | NCI-H2170 | 0.755 | 0.625 | 0.694 | 0.671 | 0.679 | 0.627 | 0.702 | 0.56 | 0.549 | 0.637 |  |  |  |  |  | 0.307 | 0.263 | 0.249 | 0.302 | 0.26
11 | SW 1573 | 0.187 | 0.177 | 0.19 | 0.214 | 0.157 | 0.519 | 0.404 | 0.504 | 0.42 | 0.177 | 0.978 | 1.08 | 0.965 | 1.2 | 0.55 | 1.07 | 1.1 | 1.19 | 1.42 | 0.954
12 | NCI-H661 | 0.358 | 0.353 | 0.366 | 0.321 | 0.372 | 0.78 | 0.815 | 0.701 | 0.661 | 0.631 | 0.909 | 0.868 | 0.595 |  | 0.651 | 0.587 | 0.407 | 0.43 |  | 0.458
13 | PC-3 [JPC-3] | 0.899 | 0.821 | 0.914 | 0.848 | 0.833 | 1.23 | 1.09 | 1.13 | 1.11 | 1.02 | 0.863 | 0.893 | 0.723 | 0.842 | 0.707 | 0.475 | 0.45 | 0.42 | 0.448 | 0.424
14 | NCI-H2342 | 0.481 | 0.583 | 0.47 | 0.599 | 0.463 | 0.593 | 0.439 | 0.453 | 0.411 | 0.503 |  |  |  |  |  |  |  |  |  | 
15 | Calu-6 |  |  |  |  |  | 0.574 | 0.601 | 0.6 | 0.578 | 0.367 | 1.08 | 0.891 | 1.03 | 0.912 | 0.603 | 1.09 | 1.03 | 1.07 | 1.07 | 0.737
16 | LC-2-ad | 0.445 | 0.491 | 0.533 | 0.387 | 0.42 | 0.729 | 0.743 | 0.71 | 0.768 | 0.71 | 1.06 | 0.978 | 1 | 1.02 | 0.81 | 0.939 | 0.922 | 0.915 | 0.945 | 0.89
17 | CAL-12T | 0.288 | 0.353 | 0.376 | 0.291 | 0.269 | 0.77 | 0.738 | 0.827 | 0.804 | 0.625 | 1.03 | 0.889 | 0.9 | 0.978 | 0.776 | 0.892 | 0.714 | 0.674 | 0.553 | 0.502
18 | RERF-LC-KJ | 0.512 | 0.506 | 0.561 | 0.456 | 0.32 | 0.995 | 0.919 | 1.06 | 0.801 | 0.579 | 1.19 | 0.968 | 1.11 | 1.07 | 0.983 | 0.834 | 0.925 | 0.911 | 0.809 | 0.84
